Read-outs that look alike come from different tables or passages of the source. Bounds are passed on as bounds.

The experiment addresses T1, BRM (Homo sapiens, UniProt P51531).
T1 construct: In-Cell Western Screen of BRM Degradation in SW1573 Cells; endogenous in cells; host or cells: SW1573
Kind of experiment: In-cell Western screen of BRM degradation in SW1573 cells (Dmax and DC50). Format: cell-based. The method in brief: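 SW1573 cells were treated overnight (18-20 hours) with compound at 0.1% final DMSO. They were then PFA-fixed, permeabilised with Triton X-100 and immunostained with 800 nm/680 nm secondary antibodies. BRM signal was quantified by LI-COR in-cell Western imaging to derive Dmax and DC50.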

The mark [1] stands for this setting: BRM degradation, read-out: BRM DC50.
Where [2] appears, read: SW1573, % degraded, when tested at the top concentration of between 0.3 and 10 μM, read-out: BRM Dmax (%).
The mark [3] stands for this setting: degradation of BRM, read-out: BRM DC50.
The mark [4] stands for this setting: BRM degradation, SW1573 cells, read-out: DC50.
The mark [5] stands for this setting: BRM degradation, SW1573 cells, when tested at the top concentration of between 0.3 and 10 μM, read-out: Dmax (%) (% degraded).

T1 sequence (P51531 whole entry): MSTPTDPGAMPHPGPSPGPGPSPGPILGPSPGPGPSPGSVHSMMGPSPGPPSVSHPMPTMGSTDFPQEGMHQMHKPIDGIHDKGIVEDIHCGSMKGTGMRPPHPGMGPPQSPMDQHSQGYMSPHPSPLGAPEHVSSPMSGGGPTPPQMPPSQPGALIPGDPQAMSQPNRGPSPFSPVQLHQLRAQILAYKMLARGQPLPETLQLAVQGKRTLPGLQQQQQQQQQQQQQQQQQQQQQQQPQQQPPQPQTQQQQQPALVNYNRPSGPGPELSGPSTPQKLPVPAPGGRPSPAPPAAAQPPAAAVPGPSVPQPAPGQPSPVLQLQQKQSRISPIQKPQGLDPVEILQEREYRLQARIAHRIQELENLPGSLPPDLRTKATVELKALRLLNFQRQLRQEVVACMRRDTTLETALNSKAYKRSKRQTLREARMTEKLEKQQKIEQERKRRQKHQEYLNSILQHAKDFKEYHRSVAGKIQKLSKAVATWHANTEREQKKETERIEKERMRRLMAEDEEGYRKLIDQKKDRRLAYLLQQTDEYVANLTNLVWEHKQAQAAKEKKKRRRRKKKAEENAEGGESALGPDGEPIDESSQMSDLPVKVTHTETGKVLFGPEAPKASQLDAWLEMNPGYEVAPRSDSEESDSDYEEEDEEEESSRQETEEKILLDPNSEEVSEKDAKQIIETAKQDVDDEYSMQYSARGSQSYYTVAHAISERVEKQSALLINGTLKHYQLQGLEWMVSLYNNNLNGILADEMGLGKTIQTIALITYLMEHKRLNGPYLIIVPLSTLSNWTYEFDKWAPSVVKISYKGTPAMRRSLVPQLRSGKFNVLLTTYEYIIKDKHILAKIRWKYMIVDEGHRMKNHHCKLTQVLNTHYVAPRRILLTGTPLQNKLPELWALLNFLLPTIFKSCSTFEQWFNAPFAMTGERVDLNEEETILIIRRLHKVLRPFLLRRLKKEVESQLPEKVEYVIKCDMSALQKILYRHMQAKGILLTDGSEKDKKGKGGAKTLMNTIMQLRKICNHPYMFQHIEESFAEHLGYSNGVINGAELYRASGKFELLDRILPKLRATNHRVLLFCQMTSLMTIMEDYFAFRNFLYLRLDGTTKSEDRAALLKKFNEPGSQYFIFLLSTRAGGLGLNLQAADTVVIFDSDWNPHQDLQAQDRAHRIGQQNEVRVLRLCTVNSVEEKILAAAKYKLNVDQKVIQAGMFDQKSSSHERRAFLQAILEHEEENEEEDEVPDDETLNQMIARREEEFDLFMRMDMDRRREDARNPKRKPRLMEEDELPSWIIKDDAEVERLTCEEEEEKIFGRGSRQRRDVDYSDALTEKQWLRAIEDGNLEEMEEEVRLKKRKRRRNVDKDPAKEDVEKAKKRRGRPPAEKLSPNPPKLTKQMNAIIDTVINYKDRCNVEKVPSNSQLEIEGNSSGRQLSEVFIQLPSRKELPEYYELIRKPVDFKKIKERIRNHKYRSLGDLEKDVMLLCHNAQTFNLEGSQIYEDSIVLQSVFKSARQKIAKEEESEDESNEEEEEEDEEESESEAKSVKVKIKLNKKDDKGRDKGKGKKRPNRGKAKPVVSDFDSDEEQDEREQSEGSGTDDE

On to `Cc1ncsc1-c1ccc([C@H](C)NC(=O)[C@@H]2C[C@@H](O)CN2C(=O)[C@@H](NC(=O)CN2CCC(CN3CCC(OC4CC(Oc5cc(N6C7CC[C@@H]6CN(c6cc(-c8ccccc8O)nnc6N)C7)ccn5)C4)CC3)CC2)C(C)(C)C)cc1` (stereo partly drawn) [compound 512, (2S,4R)-1-((2S)-2-(2-(4-((4-((1r,3r)-3-((4-(3-(3-amino-6-(2-hydroxyphenyl)pyridazin-4-yl)-3,8-diazabicyclo[3.2.1]octan-8-yl)pyridin-2-yl)oxy)cyclobutoxy)piperidin-1-yl)methyl)piperidin-1-yl)acetamido)-3,3-dimethylbutanoyl)-4-hydroxy-N-((S)-1-(4-(4-methylthiazol-5-yl)phenyl)ethyl)pyrrolidine-2-carboxamide], for which the “BRM Dmax (%)” value (% degraded, when tested at the top concentration of between 0.3 and 10 μM) is reported as “A (A > 75)”. The DC50 under setting [1] is less than 2.5 nM.
Regarding `Cc1ncsc1-c1ccc([C@H](C)NC(=O)[C@@H]2C[C@@H](OP(=O)(O)O)CN2C(=O)[C@@H](c2cc(OCCN3CCC(O[C@H]4C[C@H](Oc5cc(N6C7CCC6CN(c6cc(-c8ccccc8OP(=O)(O)O)nnc6N)C7)ccn5)C4)CC3)no2)C(C)C)cc1` [compound 517, (3R,5S)-1-((2R)-2-(3-(2-(4-((1r,3R)-3-((4-(3-(3-amino-6-(2-(phosphonooxy)phenyl)pyridazin-4-yl)-3,8-diazabicyclo[3.2.1]octan-8-yl)pyridin-2-yl)oxy)cyclobutoxy)piperidin-1-yl)ethoxy)isoxazol-5-yl)-3-methylbutanoyl)-5-(((S)-1-(4-(4-methylthiazol-5-yl)phenyl)ethyl)carbamoyl)pyrrolidin-3-yl dihydrogen phosphate], under setting [1], the DC50 is less than 2.5 nM. Also, the Dmax under setting [2] was more than 75%.
`Cc1ncsc1-c1ccc([C@H](C)NC(=O)[C@@H]2C[C@@H](O)CN2C(=O)[C@@H](c2cc(OCCN3CCC(O[C@H]4C[C@H](Oc5cc(/C=C/c6cc(-c7ccccc7O)nnc6N)ccn5)C4)CC3)no2)C(C)C)cc1` [compound 428, (2S,4R)-1-((R)-2-(3-(2-(4-((1r,3R)-3-((4-((E)-2-(3-amino-6-(2-hydroxyphenyl)pyridazin-4-yl)vinyl)pyridin-2-yl)oxy)cyclobutoxy)piperidin-1-yl)ethoxy)isoxazol-5-yl)-3-methylbutanoyl)-4-hydroxy-N-((S)-1-(4-(4-methylthiazol-5-yl)phenyl)ethyl)pyrrolidine-2-carboxamide]: the Dmax under setting [2] was more than 75%. Also, under setting [3], the DC50 was less than 2.5 nM.
In the case of `Cc1ncsc1-c1ccc([C@@H](NC(=O)[C@@H]2C[C@@H](O)CN2C(=O)[C@@H](c2cc(OCCN3CCN(CCOc4cc(N5C6CCC5CN(c5cc(-c7ccccc7O)nnc5N)C6)ccn4)CC3)no2)C(C)C)C(F)F)cc1` [compound 102, (2S,4R)-1-((2R)-2-(3-(2-(4-(2-((4-(3-(3-amino-6-(2-hydroxyphenyl)pyridazin-4-yl)-3,8-diazabicyclo[3.2.1]octan-8-yl)pyridin-2-yl)oxy)ethyl)piperazin-1-yl)ethoxy)isoxazol-5-yl)-3-methylbutanoyl)-N-((R)-2,2-difluoro-1-(4-(4-methylthiazol-5-yl)phenyl)ethyl)-4-hydroxypyrrolidine-2-carboxamide], the DC50 under setting [4] was less than 2.5 nM. The Dmax under setting [5] was more than 75%.
Regarding `Cc1ncsc1-c1ccc([C@H](C)NC(=O)[C@@H]2C[C@@H](O)CN2C(=O)[C@H](c2cc(OCCOCCOCCCCN3CCC4(CC3)CCN(c3cc(-c5ccccc5O)nnc3N)CC4)no2)C(C)C)cc1` [compound 67, (2S,4R)-1-((S)-2-(3-(2-(2-(4-(9-(3-amino-6-(2-hydroxyphenyl)pyridazin-4-yl)-3,9-diazaspiro[5.5]undecan-3-yl)butoxy)ethoxy)ethoxy)isoxazol-5-yl)-3-methylbutanoyl)-4-hydroxy-N-((S)-1-(4-(4-methylthiazol-5-yl)phenyl)ethyl)pyrrolidine-2-carboxamide], under setting [4], the DC50 was more than 30 nM.
Consider `Cc1ncsc1-c1ccc([C@H](C)NC(=O)[C@@H]2C[C@@H](O)CN2C(=O)[C@@H](c2cc(N3CCC(CN4CCC(O[C@H]5C[C@H](Oc6cc(N7C8CCC7CN(c7cc(-c9ccccc9)nnc7N)C8)ccn6)C5)CC4)CC3)no2)C(C)C)cc1` [compound 605, (2S,4R)-1-((2R)-2-(3-(4-((4-((1r,3r)-3-((4-(3-(3-amino-6-phenylpyridazin-4-yl)-3,8-diazabicyclo[3.2.1]octan-8-yl)pyridin-2-yl)oxy)cyclobutoxy)piperidin-1-yl)methyl)piperidin-1-yl)isoxazol-5-yl)-3-methylbutanoyl)-4-hydroxy-N-((S)-1-(4-(4-methylthiazol-5-yl)phenyl)ethyl)pyrrolidine-2-carboxamide], for which the DC50 (BRM degradation, SW1573 cells, Table 2D) is more than 30 nM.
Take `Cc1ncsc1-c1ccc([C@H](CO)NC(=O)[C@@H]2C[C@@H](O)CN2C(=O)[C@@H](c2cc(OCCN3CCN(CCOc4cc(N5C6CCC5CN(c5cc(-c7ccccc7O)nnc5N)C6)ccn4)CC3)no2)C(C)C)cc1` [compound 100, (2S,4R)-1-((2R)-2-(3-(2-(4-(2-((4-(3-(3-amino-6-(2-hydroxyphenyl)pyridazin-4-yl)-3,8-diazabicyclo[3.2.1]octan-8-yl)pyridin-2-yl)oxy)ethyl)piperazin-1-yl)ethoxy)isoxazol-5-yl)-3-methylbutanoyl)-4-hydroxy-N-((R)-2-hydroxy-1-(4-(4-methylthiazol-5-yl)phenyl)ethyl)pyrrolidine-2-carboxamide]: the 50% degradation concentration (DC50) under setting [4] was less than 2.5 nM. Moreover, under setting [5], the Dmax was more than 75%.
For `Cc1ncsc1-c1ccc([C@H](C)NC(=O)[C@@H]2C[C@@H](O)CN2C(=O)[C@@H](c2cc(N3CCC[C@@H](CN4CCC(O[C@H]5C[C@H](Oc6cc(N7C8CCC7CN(c7cc(-c9ccccc9O)nnc7N)C8)ccn6)C5)CC4)C3)no2)C(C)C)cc1` (single isomer, unassigned) [compound 657], the DC50 under setting [4] was less than 2.5 nM. Further, the Dmax (BRM degradation, SW1573 cells, read-out: Dmax (% degraded)) is more than 75%.
Regarding `Cc1ncsc1-c1ccc([C@H](C)NC(=O)[C@@H]2C[C@@H](O)CN2C(=O)[C@@H](c2cc(OCC(F)(F)CN3CCC(O[C@H]4C[C@H](Oc5cc(N6C7CCC6CN(c6cc(-c8ccccc8O)nnc6N)C7)ccn5)C4)CC3)no2)C(C)C)cn1` [compound 422, (2S,4R)-1-((2R)-2-(3-(3-(4-((1r,3R)-3-((4-(3-(3-amino-6-(2-hydroxyphenyl)pyridazin-4-yl)-3,8-diazabicyclo[3.2.1]octan-8-yl)pyridin-2-yl)oxy)cyclobutoxy)piperidin-1-yl)-2,2-difluoropropoxy)isoxazol-5-yl)-3-methylbutanoyl)-4-hydroxy-N-((S)-1-(6-(4-methylthiazol-5-yl)pyridin-3-yl)ethyl)pyrrolidine-2-carboxamide], the maximal degradation (Dmax) under setting [2] was more than 75%. Further, the DC50 under setting [3] was less than 2.5 nM.
Consider `Cc1ncsc1-c1ccc([C@H](C)NC(=O)[C@@H]2C[C@@H](O)CN2C(=O)[C@H](c2cc(OCCN3CCC4(CC3)CC(OCCN3CCOC5(CCN(c6cc(-c7ccccc7O)nnc6N)CC5)C3)C4)no2)C(C)C)cc1` [compound 164, (2S,4R)-1-((S)-2-(3-(2-(2-(2-(9-(3-amino-6-(2-hydroxyphenyl)pyridazin-4-yl)-1-oxa-4,9-diazaspiro[5.5]undecan-4-yl)ethoxy)-7-azaspiro[3.5]nonan-7-yl)ethoxy)isoxazol-5-yl)-3-methylbutanoyl)-4-hydroxy-N-((S)-1-(4-(4-methylthiazol-5-yl)phenyl)ethyl)pyrrolidine-2-carboxamide], for which, under setting [4], the DC50 lay in the range of 10 to 30 nM. The Dmax (BRM degradation, SW1573 cells, tested at the top concentration of between 0.3 and 10 μM, read-out: Dmax (%) (% degraded)) lay in the range of 50 to 75%.
With `Cc1ncsc1-c1ccc([C@H](COCC(C)C)NC(=O)[C@@H]2C[C@@H](O)CN2C(=O)[C@@H](c2cc(OCCN3CCN(CCOc4cc(N5C6CCC5CN(c5cc(-c7ccccc7O)nnc5N)C6)ccn4)CC3)no2)C(C)C)cc1` [compound 129, (2S,4R)-1-((2R)-2-(3-(2-(4-(2-((4-(3-(3-amino-6-(2-hydroxyphenyl)pyridazin-4-yl)-3,8-diazabicyclo[3.2.1]octan-8-yl)pyridin-2-yl)oxy)ethyl)piperazin-1-yl)ethoxy)isoxazol-5-yl)-3-methylbutanoyl)-4-hydroxy-N-((R)-2-isobutoxy-1-(4-(4-methylthiazol-5-yl)phenyl)ethyl)pyrrolidine-2-carboxamide], the DC50 under setting [4] is more than 30 nM.
For the compound `Cc1ncsc1-c1ccc(CNC(=O)[C@@H]2C[C@@H](O)CN2C(=O)[C@@H](c2cc(OCCOCCOCCCCN3CCOC4(CCN(c5cc(-c6ccccc6O)nnc5N)CC4)C3)no2)C(C)C)cc1` [compound 37, (2S,4R)-1-((R)-2-(3-(2-(2-(4-(9-(3-amino-6-(2-hydroxyphenyl)pyridazin-4-yl)-1-oxa-4,9-diazaspiro[5.5]undecan-4-yl)butoxy)ethoxy)ethoxy)isoxazol-5-yl)-3-methylbutanoyl)-4-hydroxy-N-(4-(4-methylthiazol-5-yl)benzyl)pyrrolidine-2-carboxamide], under setting [4], the DC50 lay in the range of 2.5 to 10 nM. Also, the maximal degradation (Dmax) under setting [5] is more than 75%.
For `Cc1ncsc1-c1ccc(CNC(=O)[C@@H]2C[C@@H](O)CN2C(=O)[C@@H](NC(=O)COCCOCCOCCn2cc(-c3cc(-c4ccccc4O)nnc3N)cn2)C(C)(C)C)cc1` [compound 1, (2S,4R)-1-((S)-14-(4-(3-amino-6-(2-hydroxyphenyl)pyridazin-4-yl)-1H-pyrazol-1-yl)-2-(tert-butyl)-4-oxo-6,9,12-trioxa-3-azatetradecanoyl)-4-hydroxy-N-(4-(4-methylthiazol-5-yl)benzyl)pyrrolidine-2-carboxamide], in that order: more than 30 nM and more than 75%.

By DC50 is commonly meant the midpoint of the concentration-degradation curve. As a reminder, the Dmax is the greatest extent of degradation seen.
